Assay results: ChEMBL document CHEMBL1201862, “PubChem BioAssay data set” (2004)
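Step 1: Grow cells in 96-well plates. Step 2: Expose to compound for 48 hours at 5 concentrations. Step 3: Interpolate endpoints linearly; if unreached, use highest concentration. At the GI50, growth is halved.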 The source made the active and inactive calls. No stated cut-off is given here; in the data, active = GI50 up to about 1.1 µM and inactive = higher.

Legend:
Assay in all cases: inhibition of tumour cell growth, NCI panel, 48 h
[1] = test system: A549
[2] = test system: NCI-H226
[3] = test system: UACC-257
[4] = test system: ACHN
[5] = test system: K562
[6] = test system: A498
[7] = test system: UO-31
[8] = test system: DMS-273
[9] = test system: DMS-114
[10] = test system: DLD-1
[11] = test system: SK-MEL-5
[12] = test system: RXF 393
[13] = test system: NCI-H23
[14] = test system: SN12C
[15] = test system: RPMI-8226
[16] = test system: KM12
[17] = test system: OVCAR-4
[18] = test system: HL-60
[19] = test system: OVCAR-3
[20] = test system: MDA-N

SMILES | GI50 [1] | GI50 [2] | GI50 [3] | GI50 [4] | GI50 [5] | GI50 [6] | GI50 [7] | GI50 [8] | GI50 [9] | GI50 [10] | GI50 [11] | GI50 [12] | GI50 [13] | GI50 [14] | GI50 [15] | GI50 [16] | GI50 [17] | GI50 [18] | GI50 [19] | GI50 [20]
C=CC1(C)CC(=O)C2(O)C(C)(O1)C(OC(C)=O)C(O)C1C(C)(C)CCC(O)C12C (stereo unspecified) | > 150 µM (inactive) | 3.41 µM (inactive) | > 150 µM (inactive) | > 100 µM (inactive) | > 150 µM (inactive) | > 150 µM (inactive) | 30.5 µM (inactive) | > 139 µM (inactive) | 52.8 µM (inactive) | > 150 µM (inactive) | 89.3 µM (inactive) | 7.62 µM (inactive) | 115 µM (inactive) | 30.6 µM (inactive) | 27.1 µM (inactive) | 0.863 µM (active) | > 54.8 µM (inactive) | 42.1 µM (inactive) | > 150 µM (inactive) | –
C=CCNC1=NC(=O)C(CC(=O)Nc2ccc([N+](=O)[O-])cc2[N+](=O)[O-])S1 (stereo unspecified) | > 100 µM (inactive) | > 100 µM (inactive) | > 100 µM (inactive) | 90.6 µM (inactive) | – | > 100 µM (inactive) | 84.5 µM (inactive) | > 100 µM (inactive) | 66.5 µM (inactive) | > 100 µM (inactive) | > 100 µM (inactive) | > 100 µM (inactive) | > 100 µM (inactive) | > 100 µM (inactive) | – | > 100 µM (inactive) | 95.7 µM (inactive) | 52.5 µM (inactive) | > 100 µM (inactive) | –
CCN/C(=N\Nc1ccc([N+](=O)[O-])cc1)P(=O)(OC(C)C)OC(C)C | > 100 µM (inactive) | 25.8 µM (inactive) | 68.1 µM (inactive) | > 100 µM (inactive) | > 100 µM (inactive) | > 100 µM (inactive) | > 100 µM (inactive) | > 100 µM (inactive) | > 100 µM (inactive) | > 100 µM (inactive) | 41.1 µM (inactive) | – | > 100 µM (inactive) | > 100 µM (inactive) | > 100 µM (inactive) | > 100 µM (inactive) | 44.2 µM (inactive) | > 100 µM (inactive) | > 100 µM (inactive) | –
COC(=O)C1Cc2c([nH]c3ccccc23)C(c2ccccc2O)N1 (stereo unspecified) | 43 µM (inactive) | > 100 µM (inactive) | 84.1 µM (inactive) | 58.1 µM (inactive) | 50 µM (inactive) | 21.3 µM (inactive) | 43.1 µM (inactive) | 60.4 µM (inactive) | 58.1 µM (inactive) | 42.9 µM (inactive) | 59 µM (inactive) | – | 52 µM (inactive) | 55.2 µM (inactive) | – | 60.3 µM (inactive) | 53.5 µM (inactive) | 28.5 µM (inactive) | 49.7 µM (inactive) | –
C=C(C)[C@H]1CC[C@@]2(C)C(C1)[C@H](C)CC[C@@H]2O (stereo partly specified) | > 100 µM (inactive) | > 100 µM (inactive) | > 100 µM (inactive) | > 100 µM (inactive) | > 100 µM (inactive) | > 100 µM (inactive) | > 100 µM (inactive) | > 100 µM (inactive) | > 100 µM (inactive) | > 100 µM (inactive) | > 100 µM (inactive) | > 100 µM (inactive) | > 100 µM (inactive) | > 100 µM (inactive) | > 100 µM (inactive) | > 100 µM (inactive) | > 100 µM (inactive) | – | > 100 µM (inactive) | –
CCCCCCCCCCCCCC(=O)NO | 9.91 µM (inactive) | 5.05 µM (inactive) | 29.2 µM (inactive) | 14.9 µM (inactive) | 3.03 µM (inactive) | 23.5 µM (inactive) | 6.38 µM (inactive) | 14.3 µM (inactive) | 3.6 µM (inactive) | 13.2 µM (inactive) | 9.64 µM (inactive) | 5.75 µM (inactive) | 8.22 µM (inactive) | 8.55 µM (inactive) | 5 µM (inactive) | 9.42 µM (inactive) | 6.79 µM (inactive) | 1.17 µM (inactive) | 10.1 µM (inactive) | 25.7 µM (inactive)
CC1=C(C(=O)Nc2ccccc2)C(c2cc(Cl)cc(Cl)c2)C(C(=O)Nc2ccccc2)=C(C)N1 | 20.8 µM (inactive) | 15.1 µM (inactive) | 12.3 µM (inactive) | 8.15 µM (inactive) | 1.35 µM (inactive) | 22.6 µM (inactive) | 13.9 µM (inactive) | 10.2 µM (inactive) | 4.26 µM (inactive) | 4.14 µM (inactive) | 13.8 µM (inactive) | 12.9 µM (inactive) | 5.37 µM (inactive) | 10.8 µM (inactive) | 3.84 µM (inactive) | 2.92 µM (inactive) | 2.43 µM (inactive) | 1.78 µM (inactive) | 8.22 µM (inactive) | –
O=C(c1ccccc1)C1CCCCN1C(=O)c1ccccc1 (stereo unspecified) | > 100 µM (inactive) | > 100 µM (inactive) | > 100 µM (inactive) | > 100 µM (inactive) | > 100 µM (inactive) | > 100 µM (inactive) | > 100 µM (inactive) | > 100 µM (inactive) | > 100 µM (inactive) | > 100 µM (inactive) | > 100 µM (inactive) | > 100 µM (inactive) | – | > 100 µM (inactive) | > 100 µM (inactive) | > 100 µM (inactive) | > 100 µM (inactive) | > 100 µM (inactive) | > 100 µM (inactive) | –
CC12CCC(CC1)C(C)(C)O2 [EUCALYPTOL] | – | – | 16.9 µM (inactive) | > 100 µM (inactive) | – | 0.923 µM (active) | 27.7 µM (inactive) | 3.56 µM (inactive) | 24.4 µM (inactive) | 25.9 µM (inactive) | 5.5 µM (inactive) | 13.6 µM (inactive) | 16.9 µM (inactive) | 7.08 µM (inactive) | 23.4 µM (inactive) | 33.9 µM (inactive) | 61.1 µM (inactive) | 17.1 µM (inactive) | 36.1 µM (inactive) | –
COC(=O)[C@@]12C3=NO[C@]1(C(=O)OC)C(O[Si](C)(C)C(C)(C)C)[C@H]1OC(C)(C)O[C@H]1[C@@H]2C(OCc1ccccc1)CC3 (stereo partly specified) | 34 µM (inactive) | 88.7 µM (inactive) | – | 13.2 µM (inactive) | > 100 µM (inactive) | 38.3 µM (inactive) | 41.3 µM (inactive) | 52 µM (inactive) | 36.6 µM (inactive) | 85.1 µM (inactive) | 35.1 µM (inactive) | – | 80.4 µM (inactive) | 89.7 µM (inactive) | > 100 µM (inactive) | 28.3 µM (inactive) | 22.3 µM (inactive) | 6.49 µM (inactive) | 46.5 µM (inactive) | –
Cc1ccccc1-c1c(N)nc(N)nc1C(=O)Nc1nccs1 | > 100 µM (inactive) | > 100 µM (inactive) | > 100 µM (inactive) | > 100 µM (inactive) | > 100 µM (inactive) | > 100 µM (inactive) | > 100 µM (inactive) | > 100 µM (inactive) | > 100 µM (inactive) | > 100 µM (inactive) | > 100 µM (inactive) | > 100 µM (inactive) | > 100 µM (inactive) | > 100 µM (inactive) | > 100 µM (inactive) | > 100 µM (inactive) | > 100 µM (inactive) | > 100 µM (inactive) | > 100 µM (inactive) | –
Nc1ncnc2c1ncn2CC(O)C(=O)O (stereo unspecified) | > 100 µM (inactive) | > 100 µM (inactive) | > 100 µM (inactive) | > 100 µM (inactive) | > 100 µM (inactive) | > 100 µM (inactive) | > 100 µM (inactive) | > 100 µM (inactive) | > 100 µM (inactive) | > 100 µM (inactive) | > 100 µM (inactive) | > 100 µM (inactive) | > 100 µM (inactive) | > 100 µM (inactive) | > 100 µM (inactive) | > 100 µM (inactive) | > 100 µM (inactive) | > 100 µM (inactive) | > 100 µM (inactive) | > 100 µM (inactive)
O=C1c2ccccc2N2OC3C4CCC(C4)C3C12c1ccccc1 (stereo unspecified) | 55.5 µM (inactive) | > 100 µM (inactive) | 70 µM (inactive) | > 100 µM (inactive) | 47 µM (inactive) | > 100 µM (inactive) | 71.3 µM (inactive) | 39.6 µM (inactive) | 62.5 µM (inactive) | 18.3 µM (inactive) | 60.8 µM (inactive) | 16.5 µM (inactive) | 94.6 µM (inactive) | 86.9 µM (inactive) | 37.1 µM (inactive) | – | > 100 µM (inactive) | 33.5 µM (inactive) | – | –
CC[C@@]12N=C(N(C)C)C[C@]1(O)ON=C2C | > 100 µM (inactive) | > 100 µM (inactive) | – | > 100 µM (inactive) | > 100 µM (inactive) | > 100 µM (inactive) | > 100 µM (inactive) | > 100 µM (inactive) | > 100 µM (inactive) | > 100 µM (inactive) | > 100 µM (inactive) | > 100 µM (inactive) | > 100 µM (inactive) | > 100 µM (inactive) | > 100 µM (inactive) | > 100 µM (inactive) | > 100 µM (inactive) | > 100 µM (inactive) | > 100 µM (inactive) | –
O=C(/C=C/c1ccccc1Cl)c1ccccc1Cl | 30 µM (inactive) | 45.9 µM (inactive) | 19.8 µM (inactive) | 17.3 µM (inactive) | 21 µM (inactive) | 49.1 µM (inactive) | 15.9 µM (inactive) | 16.9 µM (inactive) | 19.9 µM (inactive) | 17.5 µM (inactive) | 31.6 µM (inactive) | – | 21.2 µM (inactive) | 20.6 µM (inactive) | 16 µM (inactive) | 15.5 µM (inactive) | 20.7 µM (inactive) | 22.4 µM (inactive) | 18.9 µM (inactive) | –
